Measured values: US20070142396A1, “Treatment of pain with 1-[3-[4-(3-chlorophenyl)-1-piperazinyl]propyl]-5-methoxy-3,4-dihydro-2(1H)-quinolone or salt thereof” (Vela Pharmaceuticals, Inc., priority 2005, published 2007)

Tests used:
Assay type in all cases: in vivo, rat
[1] = test system: rats with spinal nerve ligature (Chung neuropathic pain model); test: Chung spinal nerve ligation (L5 and L6) neuropathic pain model, tactile stimulation with electronic Von Frey probe (Example 2); conditions: for Force Inducing Paw Withdrawal (g) Lesioned Paw / Force Inducing Paw Withdrawal (g) Non-lesioned Paw: hypersensitivity test after 8 days of twice daily administration
Excerpt: (§1) The Chung neuropathic pain model (Kim and Chung, Pain, 50: 355-363, 1992), employs spinal nerve ligation (SNL) in a rat. Tight ligature of spinal nerves in a rat is associated with hyperalgesia, allodynia and spontaneous pain. Antihyperalgesics reduce these chronic signs of pain hypersensitivity. Thus, the Chung model permits testing of the antihyperalgesic activity of compounds in rats with neuropathic pain. The Chung model constitutes a model for peripheral neuropathic pain in humans, and was employed as follows.
(§2) Male Rj: Wistar (Han) rats, weighing 264-369 g at the beginning of the experiment, were obtained from Elevage Janvier, 53940 Le Genest-Saint-Isle, France. The rats were acclimatized to laboratory conditions for at least 5 days before the surgery phase of the experiment. The rats were housed in groups of five in macrolon cages (41×25×14 cm) on wood litter (Litalabo—SPPS, 95100 Argenteuil, France) with free access to food (code 113—SAFE, 91360 Epinay-sur-Orge, France) and water until tested. The animal houses were maintained under artificial lighting (12 hours) between 7:00 AM and 7:00 PM in a controlled ambient temperature of 21±3° C., and with relative humidity maintained at 40-70%.
(§3) Rats (264-369 g) were anesthetized with sodium pentobarbital (50 mg/kg i.p.), and an incision at the L4-S2 level was made to expose the left L5 and L6 spinal nerves. A ligature was tied tightly around each nerve. The wound was then sutured. The rats received an i.m. injection of 50,000 IU penicillin G and were allowed to recover. At least 2 weeks after the surgery, when the chronic state was fully installed, rats were submitted consecutively to tactile and thermal stimulation of both the non-lesioned and the lesioned hindpaws.
(§4) Doses of OPC-14523 were prepared in stock solutions (weight per volume, W/V), then in dilutions (volume per volume, V/V), as appropriate. The compound was dispersed in 0.5% tragacanth in distilled water. Morphine was dissolved in physiological saline as a reference standard for treatment of pain. The solutions for the test and reference substances were prepared fresh on the day of the experiment.
(§5) The vehicle, OPC-14523, and reference (morphine) compound were each administered in a volume of 5 ml/kg body weight. The doses of OPC-14523 were expressed in mg of substance per kg body weight and administered orally (p.o.). The vehicle control was also administered orally. The dose of morphine was expressed in mg of hydrochloride salt per kg body weight and administered i.p.
(§6) Each animal was tested at 30 minutes, 1 hour, 2 hours and 4 hours after the administration of a substance. Testing occurred in the morning.
(§7) To evaluate chronic drug administration and hypersensitivity induction, animals received a second substance treatment in the afternoon, after acute testing. The animals then received twice-daily substance treatment for an additional 9 days. To test for induction of hypersensitivity, the animals were tested, on the ninth day, 30 minutes before the first substance administration in the morning. The effect of chronic administration was tested on the tenth day 30 minutes, 1 hour, 2 hours and 4 hours after the administration of the substance in the morning.
(§8) For tactile stimulation, the animal was placed under an inverted Plexiglas® box (17×11×14 cm) on a grid floor. The tip of an electronic Von Frey probe (Bioseb, Model 1610, Chaville, France) was applied with increasing pressure to the non-lesioned hindpaw or the lesioned hindpaw. The force required to induce paw withdrawal was automatically recorded. This procedure was carried out three times for each paw, and the mean force per paw was calculated to provide basic scores per animal.
Prior to receiving drug treatment, all animals were submitted to tactile stimulation and assigned to treatment groups, matched on the basis of their pain response. Each treatment group consisted of eight rats. The testing was performed blind. […]

[2] = test system: rats with spinal nerve ligature (Chung neuropathic pain model); test: Chung spinal nerve ligation (L5 and L6) neuropathic pain model, thermal stimulation (Example 2); conditions: for Paw Withdrawal Latency (s) Lesioned Paw / Paw Withdrawal Latency (s) Non-lesioned Paw: hypersensitivity test after 8 days of twice daily administration
Excerpt: as §1, §2, §3, §4, §5, §6, §7
An apparatus (Ugo Basile, Product reference: 7371, Comerio, Italy) consisted of six individual Plexiglas® boxes (17×11×14 cm) placed upon an elevated glass floor. A rat was placed in the box and left free to habituate for 10 minutes. Then, a mobile infrared radiant source was focused under the non-lesioned and lesioned hindpaws. The paw-withdrawal latencies were automatically recorded. Paw withdrawal interrupts the reflected radiation and switches off the counter and the light source. In order to prevent tissue damage, the test was terminated after 45 seconds if no reaction was noted.
Prior to receiving drug treatment, all animals were submitted to tactile stimulation and assigned to treatment groups, matched on the basis of their pain response. […]

[3] = test system: rats with spinal nerve ligature (Chung neuropathic pain model); test: Chung neuropathic pain model, tactile stimulation, second experiment (Example 3); conditions: acute; for effect on force inducing paw withdrawal: p.o.
Description: as §8
(§9) The rats used in this experiment were the same rats used in Example 2. The materials and methods for this experiment were identical to those for Example 2 with the following exceptions: there was a 1-week washout between the two experiments, and the rats weighed 290-403 g at the start of this experiment. Prior to receiving drug treatment, all animals were submitted to tactile stimulation and assigned to treatment groups matched on the basis of their pain response. No account was taken of the treatment administered during the first experiment in assigning animals to treatment groups for this experiment.
(§10) All of the substances were administered orally. Morphine, dissolved in distilled water, was administered at 128 mg/kg dose p.o. Rats were tested 30 minutes, 1 hour, 2 hours, and 4 hours after administration of the substances.

[4] = test system: rats with spinal nerve ligature (Chung neuropathic pain model); test: Chung neuropathic pain model, cold allodynia on cold plate (Example 3); conditions: cold plate
Excerpt: as §9, §10
Behavioral testing was carried out by measuring cold allodynia using an apparatus consisting of a cold plate maintained at 4±1° C. Rats were individually placed on the cold plate for a period of 5 minutes. The latency to the first paw withdrawal response and the number and total duration of withdrawal responses in 5 minutes were recorded for both the lesioned and the non-lesioned hindpaws.

**Q.** Which results are given for COc1cccc2c1CCC(=O)N2CCCN1CCN(c2cccc(Cl)c2)CC1 [OPC-14523, 1-[3-[4-(3-chlorophenyl)-1-piperazinyl]propyl]-5-methoxy-3,4-dihydro-2(1H)-quinolone]?
**A.** change of force inducing paw withdrawal vs vehicle ([1]; acute, 100 mg/kg p.o., lesioned paw, 1 hour): 107%; effect on force inducing paw withdrawal ([1]; acute, 100 mg/kg p.o., lesioned paw, 2 hours): tended to increase; change of force inducing paw withdrawal vs vehicle ([1]; acute, 100 mg/kg p.o., non-lesioned paw, 4 hours, p<0.01): −27%; effect on force inducing paw withdrawal ([1]; acute, p.o., other doses or time points): no significant effects; effect on force inducing paw withdrawal ([1]; chronic, twice daily, after 10 days, p.o., lesioned or non-lesioned paw): did not have clear effects; Force Inducing Paw Withdrawal (g) Lesioned Paw ([1]; 10 mg/kg p.o.): 17.6 (NS) g; Force Inducing Paw Withdrawal (g) Non-lesioned Paw ([1]; 10 mg/kg p.o.): 72.9 (NS) g; Force Inducing Paw Withdrawal (g) Lesioned Paw ([1]; 30 mg/kg p.o.): 15.1 (NS) g; Force Inducing Paw Withdrawal (g) Non-lesioned Paw ([1]; 30 mg/kg p.o.): 83.5 (NS) g; Force Inducing Paw Withdrawal (g) Lesioned Paw ([1]; 100 mg/kg p.o.): 16.2 (NS) g; Force Inducing Paw Withdrawal (g) Non-lesioned Paw ([1]; 100 mg/kg p.o.): 78.1 (NS) g; effect on force inducing paw withdrawal vs vehicle control ([1]; hypersensitivity test, repeated treatment at three different doses, lesioned or non-lesioned paw): no significant effects; induction of hypersensitivity ([1]; repeated administration, tactile and thermal stimulation): does not induce hypersensitivity; change of paw-withdrawal latency vs vehicle ([2]; acute, 10 mg/kg p.o., 30 minutes, NS): −57%; change of paw-withdrawal latency vs vehicle ([2]; acute, 10 mg/kg p.o., lesioned paw, 4 hours): +190%; change of paw-withdrawal latency vs vehicle ([2]; acute, 30 mg/kg p.o., lesioned paw, 4 hours): 259%; change of paw-withdrawal latency vs vehicle ([2]; acute, 100 mg/kg p.o., lesioned paw, 4 hours): 270%; change of paw-withdrawal latency vs vehicle ([2]; acute, 100 mg/kg p.o., non-lesioned paw, p<0.05): −27%; change of paw-withdrawal latency vs vehicle ([2]; chronic, 30 mg/kg, lesioned paw, 4 hours, p<0.05): +62%; effect on paw-withdrawal latency ([2]; chronic, non-lesioned paw): no effect; Paw Withdrawal Latency (s) Lesioned Paw ([2]; 10 mg/kg p.o.): 4.5 (p < 0.01) s; Paw Withdrawal Latency (s) Non-lesioned Paw ([2]; 10 mg/kg p.o.): 43.7 (NS) s; Paw Withdrawal Latency (s) Lesioned Paw ([2]; 30 mg/kg p.o.): 19.9 (NS) s; Paw Withdrawal Latency (s) Non-lesioned Paw ([2]; 30 mg/kg p.o.): 37 (NS) s; Paw Withdrawal Latency (s) Lesioned Paw ([2]; 100 mg/kg p.o.): 22.3 (NS) s; Paw Withdrawal Latency (s) Non-lesioned Paw ([2]; 100 mg/kg p.o.): 39.1 (NS) s; effect on paw-withdrawal latency vs vehicle control ([2]; hypersensitivity test, lesioned paw at other doses, non-lesioned paw at any dose): No effects; change of paw-withdrawal latency vs vehicle ([2]; hypersensitivity test, repeated treatment 10 mg/kg p.o., lesioned paw, p<0.01): −67%; change of force inducing paw withdrawal vs vehicle ([3]; 30 mg/kg p.o., lesioned paw, 30 minutes, p=0.10): +46%; change of force inducing paw withdrawal vs vehicle ([3]; 30 mg/kg p.o., lesioned paw, 2 hours, p=0.11): +79%; change of force inducing paw withdrawal vs vehicle ([3]; 100 mg/kg p.o., lesioned paw, 30 minutes, p=0.11): +76%; effect on force inducing paw withdrawal ([3]; lesioned paw): did not significantly affect; effect on force inducing paw withdrawal ([3]; non-lesioned paw): no clear effects; decrease of number of withdrawal responses ([4]; 30 mg/kg p.o., lesioned paw, 30 minutes, p<0.01): 50%; change of number of withdrawal responses ([4]; 30 mg/kg p.o., lesioned paw, 4 hours, p<0.05): −48%; change of total duration of withdrawal responses ([4]; 100 mg/kg p.o., 2 hours, p<0.05): −95%; change of latency to paw withdrawal ([4]; 100 mg/kg p.o., lesioned paw, 30 minutes, p<0.01): +140%; decrease of number of withdrawal responses ([4]; 100 mg/kg p.o., lesioned paw, 30 minutes, p<0.05): 64%; change of latency to paw withdrawal ([4]; 100 mg/kg p.o., lesioned paw, 1 hour, p=0.24): +183%
